Consider one compound from patent publication US10022342B2, “Methods and compositions for treating multiple myeloma” (Ohio State Innovation Foundation, priority 2015, dated 2018).

The subject of assay [1] is histone 3 and 4. The assay can be described thus: Immunoblot of acetyl histone H3 and H4 in MM.1S cells. Type of assay: cell-based, human. To be noted: 0.1 μM, 24-hr. As to the method: (§1) Growth inhibitory and pro-apoptotic properties of AR-42 as a single agent treatment agent have been reported previously in numerous malignancies, including MM. Because of the potent immunomodulatory effects observed with classical pan-HDACi's, immunology-related gene networks altered upon AR-42 treatment in MM cells were investigated using nCounter technology to analyze the effects of AR-42 on the expression of 511 human genes in MM.1S cells following 24-hr treatment with 0.1 μM AR-42.
(§2) Cells were harvested by centrifugation, washed with PBS and lysed using buffer composed of 50 mM Tris (pH 7.5), 150 mM NaCl, 10% glycerol, 1.0% NP-40, 0.1% SDS, supplemented with protease and phosphatase inhibitors. Protein concentrations were estimated by Bradford assay and equivalent quantities of the lysates were resolved on 4-20% Tris-HCl SDS-PAGE TGX gels (Bio-Rad). Proteins were transferred to nitrocellulose membranes and stained for acetyl-histone H3 (Milipore), acetyl-histone H4 (Milipore), IGF2BP1 (Cell Signaling Technology), IGF2BP3 (IMP-3, Santa Cruz Biotechnology), CD44 (Santa Cruz Biotechnology), CD48 (Abcam), Drosha (Cell Signaling Technology), or glyceraldehyde 3-phosphate dehydrogenase (GAPDH, Cell Signaling Technology), followed by anti-mouse, or anti-rabbit IgG-HRP (GE Healthcare). Signals were developed using Pierce ECL Western Blotting Substrate (Thermo Fisher Scientific).

Assay [2] deals with CD44. Nature of the assay: nCounter GX Human Immunology gene expression in MM.1S cells. It is filed as cell-based. To be noted: 0.1 μM, 24-hr, p<0.001. As to the method:
as §1
Total RNA was prepared using TRIzol (Invitrogen). The RNA was analyzed by nCounter GX Human Immunology Kit, or nCounter Human microRNA Kit, as recommended by the manufacturer (NanoString Technologies, Inc.). A total of 511 immunology related genes and 800 microRNAs were profiled.
Samples analyzed by NanoString assay were normalized using the variance stabilization. The mean linkage hierarchical clustering algorithm was conducted to identify subgroups of significant miRNAs. […] The obtained data were deposited in the GEO database (accession number).

Assay [3] has as its system CD44 mRNA. Nature of the assay: CD44 mRNA by qRT-PCR in MM cells. It is filed as cell-based, human. As to the method: (§3) Reduction of CD44 mRNA and protein persisted for 48 hours after treatment (FIGS. 2C-2D and data not shown).
(§4) Quantitative real time-PCR (qRT-PCR) was performed with the TaqMan method (Applied Biosystems), according to the manufacturer's instructions, and analyzed with the 7900HT Sequence Detection System (Applied Biosystems). The appropriate TaqMan probes for mRNA, miRNA, and pri-miRNA quantification were purchased from Applied Biosystems, and all reactions were performed in triplicate. The following probes were used: hsa-miR-9-5p (000583), hsa-mir-9-1 (Hs03303201_pri), hsa-miR-9-2 (Hs03303202_pri), hsa-mir-9-3 (Hs03293595_pri), CD44 (Hs01075861_ml), IGF2BP3 (Hs00559907_g1). Simultaneous quantification of ornithine decarboxylase antizyme 1 (OAZ1), or GAPDH mRNAs were used as a reference for mRNA data normalization, while small endogenous nucleolar RNA U44/U48, or U6 were used for miRNA normalization. The relative expression levels were calculated by the comparative cycle threshold (Ct) method (User Bulletin #2; Applied Biosystems). Expression analyses of pre-miRNA was performed with SYBR green PCR master mix (Applied Biosystems) and normalized for U6 RNA. All primers used for amplification steps are listed in the Supplementary materials and methods.
A general note: Real-time PCR tracks product formation cycle by cycle.

Assay [4] concerns CD44. The assay can be described thus: CD44 protein by immunoblot in MM cells. Type of assay: cell-based, human. As to conditions: 24-hr treatment, dose-dependent, vs DMSO control. As to the method:
as §3, §2
A general note: A western blot detects proteins with antibodies after separation by electrophoresis.

Assay [5] deals with MM.1S cell line. Nature of the assay: Tumor size in MM.1S subcutaneous xenograft mice. To be noted: 25 mg/kg, 2 injections, at sacrifice. Type of assay: in vivo. The method, then: To investigate if AR-42 treatment could affect CD44 expression in vivo, a xenograft MM mouse model was created by injecting 1×10^7 viable cells of MM.1S cell line subcutaneously into the right flank of 12 NOD-SCID mice. […] One group of mice (n=4) received intra-peritoneal injections of 25 mg/kg AR-42, while the second group (n=4) was injected with vehicle control (8% DMSO in PBS; Ctrl). Injections were administered once a day (on Monday and Wednesday). Because the anti-tumor activity of AR-42 has been previously reported in preclinical mouse studies, mice were sacrificed 2 days after the second injection in order to avoid tumor size reduction. […] Tumors were excised and used for CD44 immunohistochemical (IHC) studies, while the serum was collected for ELISA assays. […] Thus, AR-42 down-regulates CD44 directly in vivo.
Animal experiments were performed according to OSU institutional guidelines. To generate MM xenograft model, 1×10^7 viable MM.1S cells were injected subcutaneously into the right flank of 12 […]. The tumor size was measured once a week using a caliper, and the volume was calculated in cubed millimeters (mm3), using the formula L×W2/2. […] Mice were treated with […] injection of AR-42 (25 mg/kg) or DMSO (8% in PBS) once a day on Monday and Wednesday.

In assay [6] the test system is CD44 3′UTR element. The assay can be described thus: CD44 3'UTR luciferase reporter assay in MM.1S cells. Type of assay: cell-based, human. To be noted: 0.2 μM, 24 hours, vs untreated cells. The method, then: To address the molecular mechanism(s) responsible for downregulation of CD44 gene, the potential role of one or more cis regulatory regions was considered. […] The CD44 3′UTR element was subcloned downstream from the SV40 promoter-driven luciferase gene and transiently transfected the resulting reporter plasmid into MM.1S cells. Incubation of these cells with 0.2 μM AR-42 for 24 hours decreased luciferase activity detecting the activity of the CD44 3′UTR element by 35% as compared to untreated cells (FIG. 5A).
(Forward) 5′-gctagc[…]-3′ (SEQ ID NO: 1) and 5′- gctagc[…]-3′ (SEQ ID NO: 2) (engineered Nhel sites are in lower case), and the products were cloned into Xbal site downstream from the luciferase gene in pGL3-control vector (Promega). To generate IGF2BP3 luciferase reporter constructs, the 3′UTR was amplified by PCR using primers: (Forward) 5′-[…]-3′ (SEQ ID NO: 3) and (Reverse) 5′-[…]-3′ (SEQ ID NO: […]), and cloned into Xbal site of pGL3-control vector (Promega). Mutations in the miR-9-5p binding site of the IGF2BP3 3′UTR were introduced by the QuikChange Mutagenesis Kit (Stratagene) and the following primers:
Hela and 293T cells were transfected with 500 ng of 3′UTR-pGL3-control plasmid and 50 ng of Renilla luciferase expression construct (pRL-TK; Promega), using Lipofectamine 2000 (Invitrogen). […]

The subject of assay [7] is miR-9-5p. The assay can be described thus: miR-9-5p expression by stem loop qRT-PCR. It is filed as cell-based, human. To be noted: 24 hours, dose dependent, vs control. The method, then: 51 miRNAs were differentially expressed between the two groups.
as §4

Molecules are shown by their SMILES.

In the case of `CC(C)[C@H](C(=O)Nc1ccc(C(=O)NO)cc1)c1ccccc1` [AR-42, (S)-N-hydroxy-4-(3-methyl-2-phenylbutanamido)benzamide], the “hyperacetylation of histone 3 and 4” value in assay [1] was “detectable hyperacetylation”. For the same compound, the “CD44 gene expression (nCounter)” value in assay [2] is listed as “most significantly downregulated”. In assay [3], the “persistence of reduction of CD44 mRNA and protein after treatment” value is 48 h. In assay [3] (24-hr treatment, dose-dependent, vs DMSO control), the “CD44 mRNA” value is reported as “consistently downregulated”. The CD44 protein levels entry in assay [4] is “consistently downregulated”. The “tumor size vs vehicle group” value in assay [5] is listed as “still comparable”. Also, the “decrease of luciferase activity of the CD44 3′UTR element” value in assay [6] was determined as 35%. Moreover, the miR-9-5p expression levels entry in assay [7] is “increased”.
